Here are results for 1 molecule from patent publication US20240197869A1, “HYPERACTIVATORS OF MAMMALIAN DENDRITIC CELLS” (Corner Therapeutics, Inc., priority 2021, published 2024).

Series [1] can be described thus: Particle size by Dynamic Light Scattering (DLS). The note with it: particles of 22:0 Lyso PC and KP407 by solvent evaporation, after 0.45 um filtration. It is filed as physicochemical. The text has this:
Particle size was quantified by Dynamic Light Scattering (DLS).

Series [2] has as its system human monocyte-derived dendritic cells (moDCs). The series is described as follows: Lipid titration: IL-1β secretion by LPS-activated human moDCs. It is filed as cell-based.
Series [3] concerns murine, FLT3L-differentiated DC. Briefly: Antigen uptake and presentation assay. It is filed as cell-based, mouse. As to the method:
Antigen uptake and presentation assay. To examine antigen uptake and the endocytic ability of BMDCs, pHrodo™ Red Dextran 10,000 MW was used (ThermoFisher). Briefly, FLT3L-derived BMDCs previously cultured with media alone, or treated for 24 hours with R848 alone or in combination with 22:0 Lyso PC, were incubated with pHrodo™ Red Dextran (40 ug/ml) for 45 minutes at 37° C., or at 4° C. (as a control for surface binding of the antigen). BMDCs were then washed and stained with Live/Dead Fixable Violet dye (ThermoFisher) to distinguish living cells from dead cells. Cells were then fixed with BD fixation solution and resuspended in MACS buffer. Red (APC) fluorescence of live cells was measured by flow cytometry. Fluorescence values of BMDCs incubated at 37° C. were reported as Mean Fluorescence Intensity (MFI) of pHrodo™ Red Dextran associated cells as normalized to MFI of pHrodo™ Red Dextran associated cells incubated at 4° C. To measure the efficiency of OVA peptide presentation on MHC-I, FLT3L-BMDCs were treated as described above and incubated with Endofit-OVA protein (0.5 mg/ml) for 1 hour at 37° C. […] The percentage of cells associated with the OVA peptide on MHC-I was calculated by flow cytometry. Data were acquired on a Symphony A3 flow cytometer (Becton-Dickenson) and analyzed with FlowJo software (Becton-Dickenson). […]

Series [4] concerns human monocyte-derived dendritic cells (moDCs). Briefly: PAMP screen: IL-1β secretion by human moDCs with PRR agonist and 22:0 Lyso PC. The note with it: No PAMP, 20 μM 22:0 Lyso PC alone, human moDCs. It is filed as cell-based. The procedure: Pathogen-Associated Molecular Pattern (PAMP) Screen. Innate immune signaling pathway agonists were purchased from Invivogen. Lyophilized stocks were reconstituted and stored according to manufacturer's instructions and at recommended concentrations. […] Innate immune signaling agonists were diluted in R10 media to the manufacturer's recommended working concentration and then added onto cells. 22:0 Lyso PC was then reconstituted from a lyophilized stock in R10 and then further diluted. The lipid was added onto cells at a final concentration of 20 μM. Cells were incubated for 2 days, then cultures were collected for endpoint analyses.
Quantification of IL-1beta Secretion. IL-1beta secretion was assessed using the ELISA MAX Deluxe Set Human IL-1beta kit (Biolegend). ELISAs were performed according to manufacturer's instructions with the following modifications: i) total sample volume for incubation was reduced from […] the top standard was prepared at […], with two-fold dilutions to […]; and iii) sample incubation was completed overnight at 4 C on an orbital shaker. […] To determine IL-1beta concentration in supernatants, sample IL-1beta concentrations were interpolated using a standard curve via 4PL analysis on GraphPad Prism 9 (GraphPad Software). The interpolated results of samples were then adjusted for any dilutions made to the supernatant.

Series [5] shares this test system. The series is described as follows: DAMP screen: IL-1β secretion by LPS-activated human moDCs (ELISA). It is filed as cell-based.
For series [6] the test system is unchanged. The series is described as follows: DAMP screen: viability of human moDCs (CellTiter-Glo). (In general: In ATP-based viability assays light output follows the ATP content of the culture.)
Experimental: Danger-Associated Molecular Pattern (DAMP) Screen. After 6 days of differentiation into moDC, cells were collected and counted. Cells were plated at 100,000 cells/well in R10 media in 96-well flat bottom tissue culture-treated plates. LPS, serotype O55:B5 (Enzo Life Sciences) was added to a final concentration of 1 μg/mL in each well. […] Cells were incubated at 37° C., 5% CO2 for two days. Cell cultures were then used for endpoint analyses.
Endpoint Analyses. After culturing moDCs with PAMPs and DAMPs for two days, supernatant and cell samples were collected for analysis.
Quantification of Cell Viability. Cell viability was assessed by quantifying the presence of ATP as an indicator of metabolically active cells using the CellTiter-Glo Luminescent Cell Viability Assay (Promega). Metabolic activity was assessed following manufacturer's instructions. The CellTiter-Glo reagent was mixed with the cell pellets and remaining supernatant, and transferred to a white, opaque 96-well plate. Luminescence was measured on all wavelengths on a Spectramax iD3 plate reader (Molecular Devices) using an integration time of 500 ms. Percent viability was calculated relative to the control condition of moDCs treated with LPS.
[7] abbreviates: 82.5 μM lipid + LPS, selected lipids, Table 1-3 (repeats Table 1-1).

Consider `CCCCCCCCCCCCCCCCCCCCCC(=O)OC[C@@H](O)COP(=O)([O-])OCC[N+](C)(C)C` [22:0 LYSO PC, 1-behenoyl-2-hydroxy-sn-glycero-3-phosphocholine], for which the particle diameter result in series [1] is listed as “approximately 1500 nm”. Besides, the “concentration lower than PGPC for comparable IL-1beta secretion” value in series [2] (10.3 μM 22:0 Lyso PC vs 82.5 μM PGPC, + LPS) is on record as roughly 8 times. Besides, the figures for the “IL-1beta secretion (in words)” value in series [2] (10.3 μM lipid + LPS) and in series [2] (20.6 μM lipid + LPS) were “retained its ability to induce IL-1beta secretion” and “increased IL-1beta secretion”, respectively. Besides, the IL-1β secretion turned out to be 224.8 pg/mL in series [2] (10.3 μM lipid + LPS 1 μg/mL, 2 days, Table 1-5); 512.6 pg/mL in series [2] (20.6 μM lipid + LPS, human moDCs, 4 donors, mean (SD in wrapped line below)); 1.1 pg/mL in series [4] (Table 1-7, 10 donors); 1.0 pg/mL in series [4] (Table 1-8); 1904.2 pg/mL in series [5] (41.3 μM lipid + LPS 1 μg/mL, 2 days, Table 1-2); 2130.9 pg/mL in series [5] (setting [7]). Further, the “lipid activity index, ranking in words” value in series [2] (lipid 1.3-82.5 μM + LPS) is listed as “most potent activity by far”. Further, the “Activity Units (AU) ± SD (lipid activity index)” value in series [2] (reciprocal of lowest concentration giving IL-1β two-fold over LPS x highest IL-1β signal, lipid 1.3-82.5 μM + LPS) is given as 370.00 ± 376.36 AU. Moreover, the “OVA antigen processing and cross-presentation on MHC-I (in words)” value in series [3] (R848 + lipid) is recorded as “did not interfere with these functions”. In addition, the “antigen uptake (Red pHrodo dextran) (in words)” value in series [3] (R848 with vs without lipid, 24 h) is reported as “does not compromise the antigen uptake capacity of DCs”. Besides, the “Relative Viability (%) ± SD” value in series [6] (41.3 μM lipid + LPS 1 μg/mL, 2 days, relative to LPS-treated moDCs, Table 1-2) is on record as 47.6%; in series [6] (82.5 μM lipid + LPS 1 μg/mL, 2 days, relative to LPS-treated moDCs, Table 1-1), 14.6%; in series [6] (setting [7]), 14.6%.
